From ChEMBL document CHEMBL4732091, “Design, synthesis and biological evaluation of novel thiosemicarbazone-indole derivatives targeting prostate cancer cells” (Eur J Med Chem, 2021)
Activity calls are given as the source filed them. The rule behind the calls is not given here.

Columns and labels:
PC-3 [1] = test: Induction of apoptosis in human PC-3 cells assessed as viable cells at 50 nM measured after 72 hrs by Annexin V-FITC/propidium iodide staining based flow cytometry method (reference value: 97.2 %); format: functional; settings: read-out: Activity
DU-145 [2] = test: Activation of MAPK signaling in human DU-145 cells assessed as increase in phosphorylated p38 (Thr 180/Tyr 182) at 125 to 500 nM measured by Western blot assay; format: cell-based; settings: filed as activator, dose 125-500 nM
DU-145 [3] = test: Antiproliferative activity against human DU-145 cell line cells assessed as inhibition of cell proliferation measured after 72 hrs by MTT assay; format: functional, cell-based; settings: DU-145, 72 h
DU-145 [4] = test: Induction of apoptosis in human DU-145 cells assessed as formation of apoptotic bodies at 0.5 to 2 uM measured after 72 hrs by Hoechst staining based fluorescence method; format: functional, cell-based; settings: dose 0.5-2 µM
PC-3 [5] = test: Activation of MAPK signaling in human PC-3 cells assessed as increase in phosphorylated p38 (Thr 180/Tyr 182) at 125 to 500 nM measured by Western blot assay; format: cell-based; settings: filed as activator, dose 125-500 nM
DU-145 [6] = test: Induction of ROS generation in human DU-145 cells assessed as increase in intracellular ROS level at 250 nM pretreated with NAC followed by compound treatment measured after 48 hrs by DCFH-DA staining based flowcytometry method; format: functional, cell-based
DU-145 [7] = test: Antiproliferative activity against human DU-145 cells assessed as inhibition of cell proliferation measured after 24 to 72 hrs by MTT assay; format: functional, cell-based; settings: dose 0.156-20 µM, time 24-72 hrs
PC-3 [8] = test: Antiproliferative activity against human PC-3 cells assessed as inhibition of cell proliferation at 0.156 to 20 uM by MTT assay; format: functional, cell-based; settings: dose 0.156-20 µM, time 24-72 hrs, TDE = time-dependent effect
[9] = Cytotoxicity against human WPMY-1 cell line cells assessed as inhibition of cell proliferation measured after 72 hrs by MTT assay; format: cell-based; settings: WPMY-1, 72 h
PC-3 [10] = test: Induction of ROS generation in human PC-3 cells assessed as intracellular ROS level at 250 nM pretreated with NAC followed by compound treatment measured after 48 hrs by DCFH-DA staining based flowcytometry method (reference value: 49.9 %); format: functional
PC-3 [11] = test: Induction of cell cycle arrest in human PC-3 cells assessed as accumulation of cells in G1/S phase at 250 nM measured after 48 hrs by propidium iodide staining based flowcytometry method (reference value: 19.23%); format: functional
PC-3 [12] = test: Induction of apoptosis in human PC-3 cells assessed as early apoptotic cells at 50 nM measured after 72 hrs by Annexin V-FITC/propidium iodide staining based flow cytometry method (Rvb 0.452 %); format: functional
DU-145 [13] = test: Induction of apoptosis in human DU-145 cells assessed as early apoptotic cells at 0.5 uM measured after 72 hrs by Annexin V-FITC/propidium iodide staining based flow cytometry method (reference value: 0.835 %); format: functional
PC-3 [14] = test: Induction of ROS generation in human PC-3 cells assessed as intracellular ROS level at 250 nM measured after 48 hrs by DCFH-DA staining based flowcytometry method (reference value: 55.2 %); format: functional
DU-145 [15] = test: Cell cycle arrest in human DU-145 cells assessed as accumulation of cells in G1/S phase by measuring upregulation of p27 measured after 48 hrs by Western blot assay; format: functional, cell-based; settings: dose 1.5-6 µM
DU-145 [16] = test: Induction of apoptosis in human DU-145 cells assessed as increase in PARP at 0.5 to 2 uM measured by Western blot assay; format: functional, cell-based; settings: dose 0.5-2 µM
[17] = Toxicity in C57BL/6 mouse assessed as effect on heart at 2 mg/kg, IG measured after 2 weeks by hematoxylin and eosin staining based imaging analysis; format: organism-based; settings: in vivo, po, 336 h
PC-3 [18] = test: Antiproliferative activity against human PC-3 cells assessed as inhibition of cell proliferation measured after 72 hrs by MTT assay; format: functional, cell-based; settings: PC-3, 72 h
DU-145 [19] = test: Induction of apoptosis in human DU-145 cells assessed as viable cells at 2 uM measured after 72 hrs by Annexin V-FITC/propidium iodide staining based flow cytometry method (reference value: 96.3 %); format: functional; settings: read-out: Activity
DU-145 [20] = test: Antiproliferative activity against human DU-145 cells assessed as reduction in colony formation at 0.25 to 1 uM measured after 6 days by crystal violet staining based colony assay; format: functional, cell-based; settings: dose 0.25-1 µM, time 6.0 day
[21] = Toxicity in C57BL/6 mouse assessed as effect on kidney at 2 mg/kg, IG measured after 2 weeks by hematoxylin and eosin staining based imaging analysis; format: organism-based; settings: in vivo, po, 336 h
PC-3 [22] = test: Induction of apoptosis in human PC-3 cells assessed as nuclear fragmentation at 25 to 100 nM measured after 72 hrs by Hoechst staining based fluorescence microscope method; format: functional, cell-based; settings: dose 25-100 nM
PC-3 [23] = test: Induction of apoptosis in human PC-3 cells assessed as cell rounding at 25 to 100 nM measured after 72 hrs by Hoechst staining based fluorescence microscope method; format: functional; settings: dose 25-100 nM
PC-3 [24] = test: Induction of apoptosis in human PC-3 cells assessed as necrotic cells at 100 nM measured after 72 hrs by Annexin V-FITC/propidium iodide staining based flow cytometry method (reference value: 1.2 %); format: functional
PC-3 [25] = test: Induction of apoptosis in human PC-3 cells assessed as reduction in Bcl-2 expression at 25 to 100 nM measured by Western blot assay; format: functional, cell-based; settings: dose 25-100 nM
DU-145 [26] = test: Induction of apoptosis in human DU-145 cells assessed as early apoptotic cells at 1 uM measured after 72 hrs by Annexin V-FITC/propidium iodide staining based flow cytometry method (reference value: 0.835 %); format: functional
PC-3 [27] = test: Antiproliferative activity against human PC-3 cells assessed as inhibition of cell proliferation in presence of Fe3+ measured after 72 hrs by MTT assay; format: functional, cell-based
DU-145 [28] = test: Activation of MAPK signaling in human DU-145 cells assessed as increase in phosphorylated JNK (Thr 183/Tyr 185) at 125 to 500 nM measured by Western blot assay; format: cell-based; settings: filed as activator, dose 125-500 nM
PC-3 [29] = test: Induction of apoptosis in human PC-3 cells assessed as formation of apoptotic bodies at 25 to 100 nM measured after 72 hrs by Hoechst staining based fluorescence microscope method; format: functional, cell-based; settings: dose 25-100 nM
DU-145 [30] = test: Induction of apoptosis in human DU-145 cells assessed as increase in Bax expression at 0.5 to 2 uM measured by Western blot assay; format: functional, cell-based; settings: dose 0.5-2 µM
PC-3 [31] = test: Induction of ROS generation in human PC-3 cells assessed as intracellular ROS level at 125 nM measured after 48 hrs by DCFH-DA staining based flowcytometry method (reference value: 55.2 %); format: functional
DU-145 [32] = test: Induction of ROS generation in human DU-145 cells assessed as intracellular ROS level at 3 uM pretreated with NAC followed by compound treatment measured after 48 hrs by DCFH-DA staining based flowcytometry method (reference value: 75.1 %); format: functional
PC-3 [33] = test: Induction of apoptosis in human PC-3 cells assessed as late apoptotic cells at 50 nM measured after 72 hrs by Annexin V-FITC/propidium iodide staining based flow cytometry method (reference value: 1.01 %); format: functional
PC-3 [34] = test: Induction of apoptosis in human PC-3 cells assessed as viable cells at 25 nM measured after 72 hrs by Annexin V-FITC/propidium iodide staining based flow cytometry method (reference value: 97.2 %); format: functional; settings: read-out: Activity

Cc1ccc(/C=N/NC(=S)Nc2ccc(C(=O)NCCc3c(C)[nH]c4ccccc34)cc2)nc1
viability at 0.05 µM (PC-3 [1]): 64% | Activity (DU-145 [2]): Active | IC50 (DU-145 [3]): 1440 nM | Activity (DU-145 [4]): Active | Activity (PC-3 [5]): Active | Activity (DU-145 [6]): inactive | inhibition (DU-145 [7]): Dose-dependent effect | Activity (PC-3 [8]): Tde | IC50 [9]: 19500 nM | Activity (PC-3 [10]): 74.5% | Activity (PC-3 [11]): 29.04% | Activity (PC-3 [12]): 5.6% | Activity (DU-145 [13]): 0.41% | Activity (PC-3 [14]): 87% | Activity (DU-145 [15]): Active | Activity (DU-145 [16]): Active | Activity [17]: Non-Toxic | IC50 (PC-3 [18]): 54 nM | viability at 2 µM (DU-145 [19]): 43.8% | inhibition (DU-145 [20]): Active | Activity [21]: Non-Toxic | Activity (PC-3 [22]): Active | Activity (PC-3 [23]): Active | Activity (PC-3 [24]): 9.14% | Activity (PC-3 [25]): Active | Activity (DU-145 [26]): 10.6% | inhibition (PC-3 [27]): Active | Activity (DU-145 [28]): Active | Activity (PC-3 [29]): Active | Activity (DU-145 [30]): Active | Activity (PC-3 [31]): 75.4% | Activity (DU-145 [32]): 60.1% | Activity (PC-3 [33]): 33.5% | viability at 0.025 µM (PC-3 [34]): 98.5%
